Experimental data reported in ChEMBL document CHEMBL3351427, “Trimeric anthracenes from the endophytic fungus Stemphylium globuliferum” (J Nat Prod, 2014).
Converted amounts (≈) assume the structure as drawn.

Assays:
Format in all cases: functional
Escherichia coli = experiment: Antibacterial activity against Escherichia coli ATCC 25922 by broth microdilution method
Pseudomonas aeruginosa = experiment: Antibacterial activity against Pseudomonas aeruginosa B 63230 by broth microdilution method
Staphylococcus aureus = experiment: Antibacterial activity against Staphylococcus aureus ATCC 29213 by broth microdilution method

Question: How did the MIC (Escherichia coli) turn out when `CN(C)[C@@H]1C(O)=C(C(N)=O)C(=O)[C@@]2(O)C(O)=C3C(=O)c4c(O)cccc4[C@@](C)(O)[C@H]3C[C@@H]12` [TETRACYCLINE] was run?
Answer: Its MIC is 0.5 µg/mL (≈ 1.13 µM).

Question: What about the MIC (Pseudomonas aeruginosa) of the same compound?
Answer: The MIC was 32 µg/mL (≈ 72 µM).

Question: What about the MIC (Staphylococcus aureus) of the same compound?
Answer: Its MIC is 0.25 µg/mL (≈ 0.563 µM).
